Where two headings read alike, the source gives them in different places.
Columns and labels:
[1] = biological target: T1, GLP-1R (Homo sapiens, UniProt P43220); experiment: HitHunter cAMP assay (GLP-1R); assay type: cell-based; conditions: cAMP; for EC50: read-out: EC50 GLP-1R/nM; for Emax: read-out: (Emax) GLP-1R
In short: (§1)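 Luminescent readout of cAMP by enzyme-fragment immunocompetition gave agonist concentration-response data. Cells (10,000/well) sat in HBSS buffer containing IBMX 625 μM, HEPES 10 mM and BSA 0.2%, exposed to agonist for 30 min at room temperature.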

[2] = biological target: T1, GLP-1R; experiment: PathHunter β-arrestin assay; assay type: cell-based; conditions: PathHunter β-arrestin assay; read-out: β-arrestin activity EC50
In short: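 Overnight-plated cells; 0.2% BSA medium; agonist 22-pt 2× dilution series, duplicate; 90 min, 37 °C/5% CO2; detection reagent 3 h RT, dark; luminescence.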

[3] = biological target: T2, GIP-R (Homo sapiens, UniProt P48546); experiment: HitHunter cAMP assay (GIP-R); assay type: cell-based; conditions: cAMP; for EC50: read-out: EC50 GIP-R/nM; for Emax: read-out: (Emax) GIP-R
T2 sequence (P48546 22-466): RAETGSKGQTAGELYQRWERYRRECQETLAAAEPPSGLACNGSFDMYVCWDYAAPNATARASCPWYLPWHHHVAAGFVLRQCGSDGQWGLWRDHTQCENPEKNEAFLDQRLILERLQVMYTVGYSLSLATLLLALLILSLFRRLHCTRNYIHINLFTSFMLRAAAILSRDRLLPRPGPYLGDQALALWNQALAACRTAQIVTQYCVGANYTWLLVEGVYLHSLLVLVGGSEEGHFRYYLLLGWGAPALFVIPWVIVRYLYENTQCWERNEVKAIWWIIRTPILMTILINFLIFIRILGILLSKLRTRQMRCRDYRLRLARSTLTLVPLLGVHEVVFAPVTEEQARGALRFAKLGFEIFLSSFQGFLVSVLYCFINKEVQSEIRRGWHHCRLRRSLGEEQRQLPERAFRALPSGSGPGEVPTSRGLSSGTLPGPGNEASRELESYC
In short: as §1

[4] = test system: mice; experiment: Glucose tolerance test (GTT); assay type: in vivo, mouse; conditions: 24 h GTT, s.c., dose range 2-5 nmol/kg, percent of vehicle
Method: Freestyle Lite glucometer and strips; compounds to be tested; sterilized glucose solution 200 mg/ml.
Compounds were diluted in PBS from the 1 mM DMSO stocks right before injection. Body weight and baseline blood glucose level for each mouse were measured. Tails were snipped using sterile scissors; blood from tails was used to measure glucose. For 0.25 h GTT, mice were fasted for 5-6 h and injected with compound subcutaneously 15 mins before glucose injection. For 4 h GTT, mice were fasted O/N for 16 h and injected with compound subcutaneously 4 h before glucose injection. For 16 h GTT, mice were injected with compound subcutaneously 16 h before glucose injection; food was removed at the same time. For 24 h GTT, mice were injected with compound subcutaneously 24 h before glucose injection; food was removed 5-6 h before glucose injection. 20% glucose in water was prepared; the solution was sterilized by 0.2 μm-filtration. An intraperitoneal injection of glucose (2 g/kg) was given to the mouse. Continued to take blood samples from the tail. Blood glucose was measured at 10, 20, 30, 40, 60, 90, and 120 minutes after glucose injection. Between each of these time points, the mouse was returned to its cage and monitored (at least 6 replicate mice were used for each time-point). The average glucose measurements were plotted as a function of time and the area under the curve (AUC) was determined.

T1 sequence (P43220 24-463): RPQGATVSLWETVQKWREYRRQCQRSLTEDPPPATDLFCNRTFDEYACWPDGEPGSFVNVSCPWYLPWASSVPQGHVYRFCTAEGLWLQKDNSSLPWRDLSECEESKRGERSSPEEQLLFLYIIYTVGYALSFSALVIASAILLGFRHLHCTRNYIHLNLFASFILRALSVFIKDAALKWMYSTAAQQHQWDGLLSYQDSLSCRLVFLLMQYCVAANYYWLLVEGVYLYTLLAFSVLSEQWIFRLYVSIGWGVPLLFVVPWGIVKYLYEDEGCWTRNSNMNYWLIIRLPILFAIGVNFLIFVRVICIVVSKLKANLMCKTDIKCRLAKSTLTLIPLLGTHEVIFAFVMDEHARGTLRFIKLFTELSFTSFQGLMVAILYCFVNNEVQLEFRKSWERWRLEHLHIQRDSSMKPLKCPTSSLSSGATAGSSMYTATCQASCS

| SMILES | (Emax) GLP-1R ([1]; Table 3) [%] | EC50 ([1]; Table 3) [nM] | (Emax) GLP-1R ([1]; Table 3A) [%] | EC50 ([1]; Table 3A) [nM] | EC50 [2] [nM] | (Emax) GIP-R ([3]; Table 3) [%] | EC50 ([3]; Table 3) [nM] | (Emax) GIP-R ([3]; Table 3A) [%] | EC50 ([3]; Table 3A) [nM] | AUC score [4] | Emax ([1]; Table 3) [%] | Emax ([1]; Table 3A) [%] | Emax ([3]; Table 3) [%] | Emax ([3]; Table 3A) [%] |
| --- | --- | --- | --- | --- | --- | --- | --- | --- | --- | --- | --- | --- | --- | --- |
| CCCCCCCCCCCCCCCC(=O)N[C@@H](CCC(=O)NCCCC[C@H](NC(=O)[C@H](CO)NC(=O)[C@@H]1CCCN1C(=O)[C@@H]1CCCN1C(=O)[C@@H]1CCCN1C(=O)[C@H](C)NC(=O)CNC(=O)[C@H](CO)NC(=O)[C@H](CO)NC(=O)[C@@H]1CCCN1C(=O)CNC(=O)CNC(=O)[C@H](C)NC(=O)[C@H](CC(C)C)NC(=O)[C@H](CC(C)C)NC(=O)[C@H](Cc1c[nH]c2ccccc12)NC(=O)[C@H](CC(N)=O)NC(=O)[C@@H](NC(=O)[C@H](Cc1ccccc1)NC(=O)[C@H](CCC(=O)O)NC(=O)C(C)(C)NC(=O)[C@H](C)NC(=O)[C@H](C)NC(=O)[C@H](CCC(N)=O)NC(=O)[C@H](CCCCN)NC(=O)[C@H](CC(=O)O)NC(=O)[C@H](CC(C)C)NC(=O)[C@H](Cc1ccc(O)cc1)NC(=O)[C@@H](NC(=O)[C@H](CO)NC(=O)[C@H](Cc1ccc(O)cc1)NC(=O)[C@H](CC(=O)O)NC(=O)[C@H](CO)NC(=O)[C@@H](NC(=O)[C@H](Cc1ccccc1)NC(=O)[C@@H](NC(=O)CNC(=O)[C@H](CCC(=O)O)NC(=O)CSCC(=O)NCCN1CCC(C)C1=O)[C@@H](C)O)[C@@H](C)O)[C@@H](C)CC)C(C)C)C(N)=O)C(=O)O (single isomer, unassigned) [Compound 69] | 104 | 0.1 to 1 | 104 | 0.1 to 1 | > 1000 | 75 | 1 to 10 | 75 | 1 to 10 | 2 (AUC score 2 = 26-50%) | – | – | – | – |
| CCCCCCCCCCCCCCCC(=O)N[C@@H](CCC(=O)NCCCC[C@H](NC(=O)[C@H](CO)NC(=O)[C@@H]1CCCN1C(=O)[C@@H]1CCCN1C(=O)[C@@H]1CCCN1C(=O)[C@H](C)NC(=O)CNC(=O)[C@H](CO)NC(=O)[C@H](CO)NC(=O)[C@@H]1CCCN1C(=O)CNC(=O)CNC(=O)[C@H](C)NC(=O)[C@H](CC(C)C)NC(=O)[C@H](CC(C)C)NC(=O)[C@H](Cc1c[nH]c2ccccc12)NC(=O)[C@H](CC(N)=O)NC(=O)[C@@H](NC(=O)[C@H](Cc1ccccc1)NC(=O)[C@H](CCC(=O)O)NC(=O)C(C)(C)NC(=O)[C@H](C)NC(=O)[C@H](C)NC(=O)[C@H](CCC(N)=O)NC(=O)[C@H](CCCCN)NC(=O)[C@H](CC(=O)O)NC(=O)[C@H](CC(C)C)NC(=O)[C@H](Cc1ccc(O)cc1)NC(=O)[C@@H](NC(=O)[C@H](CO)NC(=O)[C@H](Cc1ccc(O)cc1)NC(=O)[C@H](CC(=O)O)NC(=O)[C@H](CO)NC(=O)[C@@H](NC(=O)[C@H](Cc1ccccc1)NC(=O)[C@@H](NC(=O)CNC(=O)[C@H](CCC(=O)O)NC(=O)CNC(=O)CCN1CCCCC1=O)[C@@H](C)O)[C@@H](C)O)[C@@H](C)CC)C(C)C)C(N)=O)C(=O)O [Compound 1] | – | 0.1 to 1 | – | 0.1 to 1 | > 1000 | – | 1 to 10 | – | 10 to 100 | 3 (AUC score 3 = 51-75%) | 97 | 97 | 23 | 23 |

Reference: patent US20260176320A1, “MODULATORS OF G-PROTEIN COUPLED RECEPTORS” (priority 2018, published 2026)
